This test addresses T1, 15-LOX-1 (Homo sapiens, UniProt P16050).
T1 sequence (P16050 1-662): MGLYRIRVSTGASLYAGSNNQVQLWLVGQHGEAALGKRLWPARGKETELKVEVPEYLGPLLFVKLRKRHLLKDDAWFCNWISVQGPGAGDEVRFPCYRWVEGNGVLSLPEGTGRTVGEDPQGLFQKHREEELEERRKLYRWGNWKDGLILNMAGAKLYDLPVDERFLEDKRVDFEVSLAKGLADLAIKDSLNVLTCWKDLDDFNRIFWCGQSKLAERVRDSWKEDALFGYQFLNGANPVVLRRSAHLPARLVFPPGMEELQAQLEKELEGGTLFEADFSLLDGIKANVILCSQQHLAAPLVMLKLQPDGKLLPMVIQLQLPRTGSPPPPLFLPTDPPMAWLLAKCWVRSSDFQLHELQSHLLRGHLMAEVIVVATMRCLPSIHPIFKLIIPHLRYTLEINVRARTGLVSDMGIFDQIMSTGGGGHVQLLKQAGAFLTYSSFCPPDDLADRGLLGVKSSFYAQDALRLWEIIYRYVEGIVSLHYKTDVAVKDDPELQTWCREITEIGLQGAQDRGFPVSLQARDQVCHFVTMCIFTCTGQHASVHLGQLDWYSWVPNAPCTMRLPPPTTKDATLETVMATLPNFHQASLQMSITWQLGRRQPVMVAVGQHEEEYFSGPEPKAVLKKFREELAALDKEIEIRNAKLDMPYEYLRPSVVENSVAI
Description: 15-LOX-1 activity assay, UV-absorbance change for linoleic acid conversion. To be noted: for Hill-slope: linoleic acid conversion assay; for IC50: 10 min pre-incubation at RT, 25 µM linoleic acid, absorbance 234 nm. On the set-up: His-tag (N); made in house; host or cells: E. coli BL21(DE3). Type of test: biochemical. An excerpt:
In brief, an alkyne‐alcohol was linked to propargyl halide (Cl or Br) using a CuI‐catalyzed Sonogashira cross‐coupling reaction followed by biotinylation of the alcohol using EDCI and HOBt as reagents to provide the desired biotinylated bis‐alkyne probes. The biotinylated bis‐alkynes were subjected to 15‐LOX‐1 binding studies using a 15‐LOX‐1 activity assay based on the UV‐absorbance change for linoleic acid conversion (Figure 1 a). […] Next, we evaluated the effect of the extension of the terminal ethyl substitution of inhibitor 1. […]
empty plasmid was proceed with the same procedure, which lysate was used as the negative control (referred as BL21 control later) in 15-LOX-1 recombinant enzyme inhibition studies.
1.3. Purification of recombinant human 15-LOX-1
The 15-LOX-1 with N-terminal his-tag was produced as described above. After removing the cell debris, the supernatant containing 15-LOX-1 was loaded on a Ni-NTA column (Qiagen, Hilden, Germany) pre-equilibrated with LOX lysis buffer. The column was washed twice with 30 column volume of LOX lysis buffer, and once with 30 column volume of wash buffer (25 mM HEPES, 300 mM NaCl, 25 mM Imidazole, pH 8.0). Later, the 15-LOX-1 was eluted twice with 2 column volume of elution buffer (25 mM HEPES, 300 mM NaCl, 250 mM Imidazole, pH 8.0), followed by desalting with a PD-10 column (Sigma-Aldrich) with LOX storage buffer (25 mM HEPES, 20% Glycerol, pH 7.5). The desalted 15-LOX-1 was further purified and concentrated with Vivaspin Turbo 15 (30.000 MWCO). The protein concentration was determined by Nanodrop spectrophotometry. The 100 μl aliquots of 15-LOX-1 were stored at -20 for further experiments.
15-LOX-1 recombinant enzyme inhibition assay
The 15-LOX-1 inhibition assay has been detailed previously. Briefly, the conversion of linoleic acid to hydroperoxy-(9Z,11E)-octadecadienoic acid (λmax of 234 nm) was used to determine the activity of the 15-LOX-1 enzyme. The conversion rate was the slope of UV-absorbance at 234 nm overtime at the […]
To determine the IC50 of probes, the cell lysate was pre-diluted in LOX assay buffer at a ratio of 1:160. The inhibition assay was done in an F-bottom UV-STAR 96-well plate, in which 50 µl of the diluted enzyme was incubated with 140 µl of a probe diluted in LOX assay buffer for 10 min at room temperature (RT). Later 10 µl of 500 µM linoleic acid dissolved in ethanol was added to the plate to reach a final concentration of 25 µM. The UV-absorbance at 234 nm was determined by a BioTek Synergy H1 plate reader (BioTek, Winooski, VT, USA) . The slope of the 15-LOX-1 sample untreated with the probe was set as 100%, while the slope of the BL21 control sample was set as 0%.
For the determination of enzyme kinetics, a series concentration of linoleic acid was used. Fifty µl of pre-diluted 15-LOX-1 enzyme was incubated with 140 µl of probe solution at a fixed concentration for 10 min at RT. Subsequently, 10 µl of a series concentration of linoleic acid was added to a final concentration ranging from 10 µM to 100 µM. The conversion rate was calculated as the same as […]
described in the IC50 determination assay. Michaelis-Menten plots, Lineweaver-Burk plots, Km, and Vmax, are generated using GraphPad Prism 8.3.0. […]

Data on three compounds can be found in article PMC8518382, “Identification of a Bromodomain‐like Region in 15‐Lipoxygenase‐1 Explains Its Nuclear Localization” (Angewandte Chemie (International Ed. in English), 2021).

Where “and” joins values, the source holds several entries; their conditions need not be identical. Identical values can stand only once.

Consider `O=c1cc(-c2ccccc2)oc2cc(O)c(O)c(O)c12` [Baicalein], for which the Hill-slope entry is on record as “much higher”.

On to `CCCCCC#CCC#CCOC(=O)CCCC[C@@H]1SC[C@@H]2NC(=O)N[C@@H]21` [Labelox B (3)], for which the IC50 (usually the concentration at which inhibition is half-maximal) is 0.62 µM and 0.6 µM. Where the note is “Km constant, Vmax decreases with inhibitor concentration”, the “Mode of inhibition (Lineweaver–Burk plots)” value is recorded as “non‐competitive LOX inhibition”.

As for `c1ccc2c(c1)SCc1c-2[nH]c2ccccc12` [PD146176], the concentration for half-maximal inhibition (IC50) is roughly 4 µM and the Hill-slope was 1.
